The results in this text go back to publication PMC9516332 (Frontiers in Oncology, 2022).

Each structure is given as a SMILES string. Like-named read-outs stand apart in the source and are kept apart here.

What all share (experiment): Kinase panel profiling at 1 µmol/L (MSA or IMAP), percentage inhibition
Holding throughout (assay type): biochemical

For assay [1], the target named is panel of 255 wild-type kinases (Homo sapiens, UniProt Q9P286). The conditions noted are these: read-out: %-inhibition, PAK5.
Assay [2] deals with T1, panel of 255 wild-type kinases (Homo sapiens, UniProt P51813).
T1 sequence (P51813 1-675): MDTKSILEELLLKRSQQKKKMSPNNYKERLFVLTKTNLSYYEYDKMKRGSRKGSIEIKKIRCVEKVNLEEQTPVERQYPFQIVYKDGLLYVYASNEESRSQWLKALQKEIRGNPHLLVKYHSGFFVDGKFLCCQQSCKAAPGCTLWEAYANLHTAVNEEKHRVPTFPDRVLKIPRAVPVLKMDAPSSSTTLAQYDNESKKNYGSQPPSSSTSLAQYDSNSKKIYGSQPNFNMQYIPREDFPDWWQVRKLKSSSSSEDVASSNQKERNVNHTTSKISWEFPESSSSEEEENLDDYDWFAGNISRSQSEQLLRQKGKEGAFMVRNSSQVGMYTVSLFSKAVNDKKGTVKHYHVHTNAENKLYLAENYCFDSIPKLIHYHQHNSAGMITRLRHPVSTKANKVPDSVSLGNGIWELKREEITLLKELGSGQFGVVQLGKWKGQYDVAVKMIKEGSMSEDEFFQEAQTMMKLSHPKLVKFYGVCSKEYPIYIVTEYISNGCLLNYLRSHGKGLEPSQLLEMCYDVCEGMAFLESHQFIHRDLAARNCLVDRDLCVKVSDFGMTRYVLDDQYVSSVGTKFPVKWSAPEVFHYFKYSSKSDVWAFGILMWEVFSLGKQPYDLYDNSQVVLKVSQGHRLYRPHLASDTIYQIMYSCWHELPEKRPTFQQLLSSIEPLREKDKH
The conditions noted are these: read-out: %-inhibition BMX.

Assay [3] addresses panel of 255 wild-type kinases (Homo sapiens, UniProt P43405). The following applies: read-out: %-inhibition at 1 µmol/L, SYK.
For assay [4], the target named is T2, panel of 255 wild-type kinases (Homo sapiens, UniProt Q13188).
T2 sequence (Q13188 1-491): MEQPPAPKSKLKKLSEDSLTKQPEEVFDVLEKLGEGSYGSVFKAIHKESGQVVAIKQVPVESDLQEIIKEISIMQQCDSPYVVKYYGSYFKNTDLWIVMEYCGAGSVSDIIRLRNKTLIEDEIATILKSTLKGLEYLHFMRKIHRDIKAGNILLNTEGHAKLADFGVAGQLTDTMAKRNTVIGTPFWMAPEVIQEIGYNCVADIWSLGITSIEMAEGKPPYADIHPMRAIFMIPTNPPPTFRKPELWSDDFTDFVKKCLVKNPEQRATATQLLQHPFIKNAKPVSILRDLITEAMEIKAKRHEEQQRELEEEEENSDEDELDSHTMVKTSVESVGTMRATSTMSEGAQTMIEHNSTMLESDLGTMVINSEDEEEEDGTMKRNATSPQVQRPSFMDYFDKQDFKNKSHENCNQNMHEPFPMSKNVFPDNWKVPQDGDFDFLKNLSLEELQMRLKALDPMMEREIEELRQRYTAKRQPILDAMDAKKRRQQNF
The following applies: read-out: %-inhibition, MST2.

The target in assay [5] is panel of 255 wild-type kinases (Homo sapiens, UniProt P22455). The conditions noted are these: read-out: %-inhibition at 1 µmol/L, FGFR4.
Assay [6] addresses T3, panel of 255 wild-type kinases (Homo sapiens, UniProt Q8TF76).
T3 sequence (Q8TF76 1-798): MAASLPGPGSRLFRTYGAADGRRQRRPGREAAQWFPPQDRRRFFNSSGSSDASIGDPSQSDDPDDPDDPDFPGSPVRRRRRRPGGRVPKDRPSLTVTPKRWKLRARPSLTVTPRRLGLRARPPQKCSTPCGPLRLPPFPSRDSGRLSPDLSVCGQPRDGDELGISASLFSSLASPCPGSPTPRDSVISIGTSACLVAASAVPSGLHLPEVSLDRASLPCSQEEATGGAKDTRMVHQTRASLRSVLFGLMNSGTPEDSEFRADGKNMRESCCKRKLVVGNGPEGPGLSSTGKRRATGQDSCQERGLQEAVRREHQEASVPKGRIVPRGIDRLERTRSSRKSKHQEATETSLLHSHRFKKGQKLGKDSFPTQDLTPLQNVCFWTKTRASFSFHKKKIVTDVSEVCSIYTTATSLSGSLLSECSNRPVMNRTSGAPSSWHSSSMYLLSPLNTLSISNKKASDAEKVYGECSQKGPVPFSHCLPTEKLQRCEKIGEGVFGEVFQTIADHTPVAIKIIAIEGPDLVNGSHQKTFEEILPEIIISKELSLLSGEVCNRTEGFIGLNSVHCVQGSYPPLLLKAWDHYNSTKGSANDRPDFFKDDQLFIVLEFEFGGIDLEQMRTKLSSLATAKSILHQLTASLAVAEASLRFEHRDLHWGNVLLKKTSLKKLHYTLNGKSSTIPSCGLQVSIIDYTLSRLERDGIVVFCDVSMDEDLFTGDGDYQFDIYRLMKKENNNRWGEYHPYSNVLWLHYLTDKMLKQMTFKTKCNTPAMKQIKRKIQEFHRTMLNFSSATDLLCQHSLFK
The conditions noted are these: read-out: %-inhibition at 1 µmol/L, Haspin.

Assay [7] deals with panel of 255 wild-type kinases (Homo sapiens, UniProt Q9Y243). The following applies: read-out: %-inhibition AKT3.
The target in assay [8] is panel of 255 wild-type kinases (Homo sapiens, UniProt P53350). The conditions noted are these: read-out: %-inhibition at 1 µmol/L, PLK1.
The mark [9] stands for this setting: PAK5, 1 µmol/L single concentration.
Setting [10] is: BMX kinase assay, 1 µmol/L single concentration.
Where [11] appears, read: kinase SYK, 1 µmol/L single concentration.
Setting [12] is: MST2, 1 µmol/L single concentration.
[13] abbreviates: kinase FGFR4, 1 µmol/L single concentration.
Where [14] appears, read: kinase Haspin, 1 µmol/L single concentration.
Where [15] appears, read: AKT3 kinase assay, 1 µmol/L single concentration.
Setting [16] is: kinase PLK1, 1 µmol/L single concentration.

Turning to `Cc1nc(NC(=O)N2CCC[C@H]2C(N)=O)sc1-c1ccnc(C(C)(C)C(F)(F)F)c1` [alpelisib], the inhibition at 1 µM in assay [1] (setting [9]) is -2.58%; in assay [2] (setting [10]), 0.476%; in assay [3] (setting [11]) it was -23%; in assay [4] (setting [12]) it was 1.52%; in assay [5] (setting [13]), 9%; in assay [6] (setting [14]), -4%. Further, the results for the inhibition at 1 µM in assay [7] (setting [15]) and in assay [8] (setting [16]) were -0.151% and 0.0286%, respectively.

For the compound `Cn1cc(-c2cc3c(N4CCN(c5ncc([C@@](C)(N)c6ccc(F)cc6)cn5)CC4)ncnn3c2)cn1` [avapritinib], the inhibition at 1 µM came to 4.51% in assay [1] (setting [9]); 21% in assay [2] (setting [10]); 44% in assay [3]; 0.434% in assay [4] (setting [12]); 41% in assay [5] (setting [13]); 59% in assay [6] (setting [14]). For the same compound, the inhibition at 1 µM in assay [7] (setting [15]) was -5%; in assay [8] (setting [16]), -1.53%.

As for `Cn1cnc2c(F)c(Nc3ccc(Br)cc3F)c(C(=O)NOCCO)cc21` [binimetinib], the inhibition at 1 µM in assay [1] (setting [9]) was 5%; in assay [2] (setting [10]) it was 4%; in assay [3] (setting [11]), -19%; in assay [4] (setting [12]) it was -1.64%; in assay [5] (setting [13]), 4.66%; in assay [6] (setting [14]) it was -15%. Also, the inhibition at 1 µM in assay [7] (setting [15]) is -5.69%; in assay [8] (setting [16]), 0.406%.

For the compound `CNC(=O)c1ccc(-c2cnc3ncc(Cc4ccc5ncccc5c4)n3n2)cc1F` [capmatinib], the inhibition at 1 µM in assay [1] is 0.765%; in assay [2] it was 4.33%; in assay [3] it was 2.11%; in assay [4], -3.3%; in assay [5] it was 8%; in assay [6], 37%. Besides, the inhibition at 1 µM in assay [7] and in assay [8] was -5% in each case.

For `COc1cc2ncnc(Nc3ccc(F)c(Cl)c3)c2cc1NC(=O)/C=C/CN1CCCCC1` [dacomitinib], the inhibition at 1 µM in assay [1] (setting [9]) is 4.29%; in assay [2] (setting [10]), 12%; in assay [3] (setting [11]), -8%; in assay [4] (setting [12]), 2%; in assay [5] (setting [13]), -4.42%; in assay [6] (setting [14]), 13%. Moreover, the inhibition at 1 µM in assay [7] (setting [15]) is -5%; in assay [8] (setting [16]), 3.78%.

Take `C[C@H](Nc1ncnc2nc[nH]c12)c1cc2cccc(Cl)c2c(=O)n1-c1ccccc1` [duvelisib]: the inhibition at 1 µM was -1% in assay [1] (setting [9]); 1.46% in assay [2] (setting [10]); -2.35% in assay [3] (setting [11]); 4% in assay [4] (setting [12]); 5% in assay [5] (setting [13]); 2% in assay [6] (setting [14]). Further, the inhibition at 1 µM was 0.279% in assay [7] (setting [15]) and 0.784% in assay [8] (setting [16]).

On to `COC(=O)N[C@@H](C)CNc1nccc(-c2cn(C(C)C)nc2-c2cc(Cl)cc(NS(C)(=O)=O)c2F)n1` [encorafenib], for which the inhibition at 1 µM was 0.399% in assay [1] (setting [9]); 8% in assay [2] (setting [10]); -20% in assay [3] (setting [11]); 3% in assay [4] (setting [12]); 4.23% in assay [5] (setting [13]); -5% in assay [6] (setting [14]). In addition, the inhibition at 1 µM was -0.872% in assay [7] (setting [15]) and -2.56% in assay [8] (setting [16]).

Take `CN1CCN(c2ccc(C(=O)Nc3n[nH]c4ccc(Cc5cc(F)cc(F)c5)cc34)c(NC3CCOCC3)c2)CC1` [entrectinib]: the inhibition at 1 µM in assay [1] (setting [9]) is 25%; in assay [2] (setting [10]), 99%; in assay [3] (setting [11]) it was -5.27%; in assay [4] (setting [12]), 35%; in assay [5] (setting [13]), 38%; in assay [6] (setting [14]) it was -2.24%. For the same compound, the inhibition at 1 µM in assay [7] (setting [15]) is -1.28%; in assay [8] (setting [16]), 0.212%.

As to `CCc1nc(C(N)=O)c(Nc2ccc(N3CCC(N4CCN(C)CC4)CC3)c(OC)c2)nc1NC1CCOCC1` [gilteritinib], the inhibition at 1 µM in assay [1] (setting [9]) was 92%; in assay [2] (setting [10]) it was 60%; in assay [3] (setting [11]), 70%; in assay [4] (setting [12]), 14%; in assay [5] (setting [13]), 15%; in assay [6] (setting [14]), 35%. Also, the inhibition at 1 µM in assay [7] (setting [15]) is -4.56%; in assay [8] (setting [16]), 7.52%.

`CCN1CCN(c2ccc(Nc3cc(N(C)C(=O)Nc4c(Cl)c(OC)cc(OC)c4Cl)ncn3)cc2)CC1` [infigratinib]: the inhibition at 1 µM in assay [1] (setting [9]) was 2.49%; in assay [2] (setting [10]), 0.836%; in assay [3] (setting [11]) it was -17%; in assay [4] (setting [12]), -2.14%; in assay [6] (setting [14]), -1.4%; in assay [7] (setting [15]), -7%. Also, in assay [8] (setting [16]), the inhibition at 1 µM stood at 0.613%.

In the case of `O=C(Nc1cnn2ccc(N3CCC[C@@H]3c3cc(F)ccc3F)nc12)N1CC[C@H](O)C1` [larotrectinib], the inhibition at 1 µM in assay [1] (setting [9]) is -0.213%; in assay [2] (setting [10]), 21%; in assay [3] (setting [11]) it was -8%; in assay [4] (setting [12]), 0.182%; in assay [5] (setting [13]) it was 6%; in assay [6] (setting [14]) it was -4.46%. Moreover, the inhibition at 1 µM in assay [7] (setting [15]) was -5.46%; in assay [8] (setting [16]) it was -1.17%.

In the case of `C[C@H]1Oc2cc(cnc2N)-c2c(nn(C)c2C#N)CN(C)C(=O)c2ccc(F)cc21` [lorlatinib], the inhibition at 1 µM came out at 11% in assay [1] (setting [9]); 4% in assay [2] (setting [10]); 16% in assay [3] (setting [11]); 8% in assay [4] (setting [12]); 20% in assay [5] (setting [13]); 0.865% in assay [6] (setting [14]). Further, the figures for the inhibition at 1 µM in assay [7] (setting [15]) and in assay [8] (setting [16]) were -0.768% and 2.12%, respectively.

On to `C=CC(=O)N1CCC([C@@H]2CCNc3c(C(N)=O)c(-c4ccc(Oc5ccccc5)cc4)nn32)CC1` [zanubrutinib], for which the inhibition at 1 µM in assay [1] (setting [9]) is 0.606%; in assay [3] (setting [11]) it was -6.37%; in assay [4] (setting [12]) it was 1.56%; in assay [5] (setting [13]), 7.51%; in assay [6] (setting [14]), -1.75%; in assay [7] (setting [15]) it was -3%. Further, the inhibition at 1 µM in assay [8] (setting [16]) is -0.741%.
